The results in this text go back to article PMC10065799, “High-throughput profiling of sequence recognition by tyrosine kinases and SH2 domains using bacterial peptide display” (eLife, 2023).

Assay [1] has as its system EPHB1 kinase domain. In words: ADP-Quest continuous fluorimetric kinase assay (initial rates of consensus peptides). The note with it: peptide 100 or 20 μM, kinase 10–50 nM; Figure 2C and supplement 2. Type of assay: biochemical, human. An excerpt:
A fluorescence-based assay from Eurofins (ADP Quest) was used to measure the Michaelis-Menten kinetic parameters for phosphorylation of the consensus peptides by purified tyrosine kinase domains. In this assay, ADP production as a result of kinase activity is coupled to the production of resorufin, a fluorophore that emits signal at 590 nm. For all experiments, the assay reactions were set up as described in the provided assay kit protocol, in a 384 well plate format. The peptide solutions were serially diluted in 100 mM Tris, pH 8.0, and the kinases were diluted to 50 nM in buffer (10 mM HEPES, 100 mM NaCl, 1 mM TCEP, 5 mM MgCl2, 10% (v/v) glycerol). The final reaction mixtures contained 10 nM of kinase with 100 μM of ATP. […] Phosphorylation reaction progress was monitored by measuring fluorescence at excitation 530 nm and emission 590 nm every 2 min at 37 °C on a plate reader (BioTek Synergy Neo 2). The fluorescence units (RFU) were converted to μM ADP by comparison to a standard curve, and the initial rates were extracted from the linear regime of the reaction progress curves. Initial rates were also measured for samples containing each kinase but lacking a peptide substrate, to account for background ATP hydrolysis. This background rate was subtracted from the rates measured in the presence of peptide. […]

For another assay, the system named is FGFR3 kinase domain. Description: pTyr-Var library bacterial peptide display kinase screen (enrichment scores). Type of assay: biochemical, human.
The test system of the next assay is Fyn kinase domain. The description is as above. In kind it is biochemical, human.
A further assay has as its system Fer kinase domain. The description is as above. Type of assay: biochemical, mouse.
The target of another assay is c-Src SH2 domain (Homo sapiens, UniProt P12931). In words: pTyr-Var library SH2 domain screen with SH2-dynabeads (enrichment scores). The conditions noted are these: sheet c-Src.
The next assay deals with FGFR1 kinase domain. Description: pTyr-Var library bacterial peptide display kinase screen (enrichment scores). In kind it is biochemical, human.
For the next assay, the system named is SHP2 C-SH2 domain. Description: pTyr-Var library SH2 domain screen with SH2-dynabeads (enrichment scores).
The subject of the next assay is Grb2 SH2 domain. The assay is described as above.
For the next assay, the system named is Jak2. In words: pTyr-Var library bacterial peptide display kinase screen (enrichment scores). In kind it is biochemical, human.
The target in another assay is T1, c-Abl kinase domain (Mus musculus, UniProt P00520).
T1 sequence (P00520 242-493 limits assumed): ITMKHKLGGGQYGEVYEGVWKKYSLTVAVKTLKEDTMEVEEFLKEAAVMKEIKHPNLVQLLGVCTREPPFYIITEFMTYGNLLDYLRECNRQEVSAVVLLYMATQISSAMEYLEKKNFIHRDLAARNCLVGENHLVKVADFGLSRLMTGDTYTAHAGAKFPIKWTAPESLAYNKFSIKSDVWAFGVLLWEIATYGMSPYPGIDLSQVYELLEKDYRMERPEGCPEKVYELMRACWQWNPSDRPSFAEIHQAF
The assay is described as above. Type of assay: biochemical.

The next assay deals with Fes. The assay is described as above. In kind it is biochemical. The note with it: mean of log2 of enrichment over R1-R6.
The next assay deals with Hck kinase domain. Described as above. In kind it is biochemical, human. The note with it: enrichment score.
The test system of the next assay is MERTK kinase domain. The description is as above. Type of assay: biochemical, human.
Assay [2] relates to 4G10 Platinum pan-phosphotyrosine antibody. In words: Phosphorylated pTyr-Var library selection with biotinylated pan-phosphotyrosine antibody. In kind it is binding, mouse. The note with it: enrichment score, sheet SH2-vs-peptide. On the procedure: After the desired time of library phosphorylation, kinase activity was quenched with 25 mM EDTA and the cells were washed with PBS containing 0.2% BSA. Kinase-treated cells were then labeled with a 1:1000 dilution of biotinylated 4G10 Platinum anti-phosphotyrosine antibody (Millipore) for an hour on ice and washed with PBS containing 0.1% BSA and 2 mM EDTA (isolation buffer). The cells were finally resuspended in PBS containing 0.1% BSA. The phosphorylated, antibody-labeled cells were then mixed with magnetic beads from Dynabeads FlowComp Flexi kit (Invitrogen), at a ratio of 37.5 μL of washed beads per 50 μL of cell suspension, diluted into 450 μL of isolation buffer. The suspension was rotated at 4 °C for 30 minutes, then 375 μL of isolation buffer was added and the beads were separated from the bulk solution on a magnetic rack. The beads were washed once with 1 mL of isolation buffer, and then the supertantant were removed by aspiration. […] The bead/lysate mixture was centrifuged to pellet the beads and the mixture was stored at -20 °C.

Assay [3] relates to EPHB1 kinase domain. In words: pTyr-Var library bacterial peptide display kinase screen (enrichment scores). Type of assay: biochemical, human.
Another assay relates to AncSZ kinase domain. The description is as above. Type of assay: biochemical.
The test system of a further assay is EPHB2 kinase domain. The description is as above. In kind it is biochemical, human.
Another assay concerns the target c-Src kinase domain (Homo sapiens, UniProt P12931). The assay is described as above. In kind it is biochemical.
For assay [4], the target named is human c-Src SH2 domain (residues 143-250) (human, UniProt P12931-1 143-250, biotin on the Avi tag (co-expression with the biotin ligase BirA)). Description: fluorescence polarisation; direct titration: varying concentrations of c-Src SH2 with 30 nM fluorescent peptide, 15 min; 60 mM HEPES pH 7.2, 75 mM KCl, 75 mM NaCl, 1 mM EDTA, 0.05% Tween 20; 25 °C; quadratic binding equation. The note with it: both partners purified.

Setting [5] is: mean of log2 enrichment of reference peptide, n = 5.
Setting [6] is: pTyr-Var library, reference peptide enrichment, mean of n = 5.
[7] abbreviates: mean of log2 of enrichment over R1-R4.
Where [8] appears, read: pTyr-Var library, enrichment score, replicate 1.
Setting [9] is: pTyr-Var library, enrichment score, replicate 3.
Setting [10] is: pTyr-Var library, enrichment score, replicate 4.
[11] abbreviates: mean of log2 enrichment of reference peptide, n = 4.
[12] abbreviates: pTyr-Var library, reference peptide enrichment, mean of n = 4.

A word on the Kd: it is the constant that tells how readily two partners part at equilibrium.

Square brackets hold non-standard residues; d marks the D form. * marks the point of attachment. FITC = O=C1OC2(c3ccc(O)cc3Oc3cc(O)ccc32)c2ccc(NC(=S)*)cc21; pY = N[C@@H](Cc1ccc(OP(=O)(O)O)cc1)C(=O)O; Ahx = NCCCCCC(=O)O

On to “Ac-GPPEPNYEVIPPKKKG-NH2 [EPHB1 Consensus, EPHB1 consensus substrate peptide from X5-Y-X5 screen]”, for which the “phosphorylation of consensus peptide by EPHB1 (initial rate relative to cognate consensus)” value in the assay on EPHB1 kinase domain [1] is listed as “did not prefer”.

On to LRVGFYESDVM [A2M_Y708], for which the “mean of log2(reference)” value is 1.27 in the assay on FGFR3 kinase domain (setting [5]); 2.001 on c-Src SH2 domain (mean of log2 enrichment of reference peptide, R1-R3); 0.2144 with FGFR1 kinase domain (setting [5]); 0.01184 in the assay with SHP2 C-SH2 domain (SHP2-C SH2, mean of log2 enrichment of reference, R1-R3); -0.1031 in the assay on Grb2 SH2 domain (Grb2 SH2, mean of log2 enrichment of reference, R1-R3); 1.359 in the assay with MERTK kinase domain (setting [11]). For the same molecule, the “mean of log2(reference)” value in the assay with EPHB1 kinase domain [3] (setting [11]) is given as 0.89; in the assay on EPHB2 kinase domain (setting [11]), -0.3867. Moreover, the ref. mean in the assay on FGFR3 kinase domain (setting [6]) was determined as 2.887; at c-Src SH2 domain (reference peptide, mean of R1-R3), 4.137; in the assay on FGFR1 kinase domain (setting [6]), 1.392; in the assay with SHP2 C-SH2 domain (reference peptide enrichment score, SHP2-C SH2, mean of R1-R3), 1.018; in the assay on Grb2 SH2 domain (reference peptide enrichment score, Grb2 SH2, mean of R1-R3), 0.9341; in the assay on MERTK kinase domain (setting [12]), 2.61. In addition, the ref. mean came out at 1.865 in the assay with EPHB1 kinase domain [3] (setting [12]) and 0.9336 with EPHB2 kinase domain (setting [12]). The “Fyn mean of log2(enrichment)” value in the assay with Fyn kinase domain (setting [7]) is reported as -0.1485. In addition, in the assay on Fyn kinase domain (setting [8]), the “Fyn enrich. R1” value is listed as 1.939. Besides, the “Fyn enrich. R3” value in the assay with Fyn kinase domain (setting [9]) was determined as 1.639. Besides, in the assay on Fyn kinase domain (setting [10]), the “Fyn enrich. R4” value turned out to be 0.1487. The “Fer mean of log2(enrichment)” value in the assay on Fer kinase domain (setting [7]) was 0.6409. Besides, the “Fer enrich. R1” value with Fer kinase domain (setting [8]) came to 1.74. In the assay with Fer kinase domain (setting [9]), the “Fer enrich. R3” value is 2.063. Further, the “Fer enrich. R4” value in the assay with Fer kinase domain (setting [10]) turned out to be 1.716. Also, in the assay with Jak2 (mean of log2 of enrichment over R1-R3), the “Jak2 mean of log2(enrichment)” value is listed as 0.9825. In addition, in the assay on Jak2 (pTyr-Var library, enrichment score, mean of replicates R1-R3), the “Jak2 enrichment (mean)” value came out at 2.035. Also, the “Jak2 enrich. R1” value in the assay with Jak2 (setting [8]) was found to be 2.166. Besides, the “Jak2 enrich. R3” value in the assay with Jak2 (setting [9]) turned out to be 1.407. Also, the “c-Abl mean of log2(enrichment)” value at c-Abl kinase domain (setting [7]) was found to be 0.8901. For the same molecule, at c-Abl kinase domain (setting [8]), the “c-Abl enrich. R1” value turned out to be 1.339. Besides, the “c-Abl enrich. R3” value at c-Abl kinase domain (setting [9]) was determined as 1.7654. Also, the “c-Abl enrich. R4” value at c-Abl kinase domain (setting [10]) worked out at 2.061. The “Fes mean of log2(enrichment)” value in the assay on Fes was 1.487. In the assay with Hck kinase domain (replicate 1), the “Hck enrich. R1” value was determined as 1.102. The “Hck enrich. R3” value with Hck kinase domain (replicate 3) is recorded as 1.0148. Further, the “Hck enrich. R4” value with Hck kinase domain (replicate 4) was determined as 0.9933. In addition, the “4G10 (mean)” value in [2] came to 1.415. The “EPHB1 enrichment (mean)” value in the assay with EPHB1 kinase domain [3] (pTyr-Var library, enrichment score, mean of replicates) amounted to 1.865. The “AncSZ mean of log2(enrichment)” value with AncSZ kinase domain (mean of log2 of enrichment over R1-R5) is 1.515. Also, in the assay with AncSZ kinase domain (setting [9]), the “AncSZ enrich. R3” value is recorded as 3.27. In addition, the “AncSZ enrich. R4” value with AncSZ kinase domain (setting [10]) is 3.639. The “AncSZ enrich. R5” value in the assay on AncSZ kinase domain (pTyr-Var library, enrichment score, replicate 5) is recorded as 3.918. Moreover, the “c-Src mean of log2(enrichment)” value at c-Src kinase domain (setting [7]) came to 0.391. For the same molecule, on c-Src kinase domain (setting [8]), the “c-Src enrich. R1” value was determined as 1.08. Moreover, at c-Src kinase domain (setting [9]), the “c-Src enrich. R3” value amounted to 1.298. The “c-Src enrich. R4” value on c-Src kinase domain (setting [10]) was 1.223.

B1: fluorescently-labeled c-Src-SH2 consensus peptide FITC-Ahx-GDG(pY)EEISPLLL-NH2 (peptide)
peptide: {FITC-Ahx}-GDG[pY]EEISPLLL-NH2
SMILES: CC[C@H](C)[C@H](NC(=O)[C@H](CCC(=O)O)NC(=O)[C@H](CCC(=O)O)NC(=O)[C@H](Cc1ccc(OP(=O)(O)O)cc1)NC(=O)CNC(=O)[C@H](CC(=O)O)NC(=O)CNC(=O)CCCCCNC(=S)Nc1ccc2c(c1)C(=O)OC21c2ccc(O)cc2Oc2cc(O)ccc21)C(=O)N[C@@H](CO)C(=O)N1CCC[C@H]1C(=O)N[C@@H](CC(C)C)C(=O)N[C@@H](CC(C)C)C(=O)N[C@@H](CC(C)C)C(N)=O
notes: also called fluorescent peptide; source: gift from the Amacher lab (Western Washington University)
For the molecule B1, the Kd in assay [4] was 160 nM. This lies in the sub-micromolar range.
